# Reference: patent US4510149A, “N-Imidazolyl derivatives containing naphthalene or indene nucleus” (Farmitalia Carlo Erba S.p.A., priority 1982, dated 1985)
# Entries after “also recorded” stand apart in the source; their conditions may differ.
# Tests used:
# [1] = orientative acute toxicity, single oral administration, mice; conditions: in vivo, mouse, same procedure
# Method: The toxicity of the compounds of the invention is negligible, therefore they can be safely used in therapy. Nine hours food deprived mice and rats were treated orally with single administration of increasing doses, then housed and normally fed. The orientative acute toxicity (LD50) was assessed on the seventh day after the treatment and resulted higher than 3000 mg/kg.
# [2] = tested on: male rats fed hypercholesterolaemic diet; test: Experiment No. 1: serum lipids in rats fed hypercholesterolaemic diet; format: in vivo, rat (Icem: CER (SPF Caw)); conditions: 4 days
# Method: (§1) The introduction of this new substituent in the new bicyclic compounds has therefore unexpectedly strenghtened these activities. The activity of this particular group of compounds of this invention and of the compounds of the above mentioned U.S. Patent and U.K. published Patent Application was evaluated on groups of Icem: CER (SPF Caw) male rats either fed for six days with hypercholesterolaemic diet according to C. E. Day [Schurr P. E., Schultz H. R., Day C. E. (Eds) Atherosclerosis and drug discovery--Plenum Pub. Corp., 217 (1976)] (Experiment No. 1) or fed standard diet [Altromin] (Experiment No. 2). "Altromin" is a trade mark.
# (§2) The compounds were suspended in "Methocel" (methyl cellulose, a 0.5% suspension in water) and administered by stomach tube for 4 days.
# (§3) Groups of animals were treated with the suspending agent only (control groups).
# (§4) The total serum cholesterol was determined with the method of Trinder P. J. [J.Clin.Pathol., 22, 246 (1969)].
# The total serum HDL cholesterol was determined according to Demacker P. N. M. [Clin. Chem., 23, 1238, (1977)].
# Statistical analysis in experiment No. 1 was performed by the Student's t test for independent samples or by the Cochran's test when the variances were not homogeneous at the F ratio test [Bliss C. I.--Statistics in Biology, Vol. 1, page 213--Mc Graw Hill Book Company, New York, 1967; Cochran W. G., Cox G. M.--Experimental designs--J. Wiley & Sons Inc., New York, II Ed. (1968) page 100].
# [3] = tested on: male rats fed standard diet; test: Experiment No. 2: serum lipids in rats fed standard Altromin diet; format: in vivo, rat (Icem: CER (SPF Caw)); conditions: 4 days
# Method: as §1, §2, §3, §4
# The serum triglycerides were determined with the method of Mendex J. [J. Clin. Chem., 21, 768, (1975)].
# W.--J. Amer. Stat. Ass., 50, 1096 (1955)].
# [4] = tested on: thromboxane A2 (TXA2) synthetase; conditions: literature / prior filings; cited from earlier work
# [5] = tested on: collagen-induced platelet aggregation; test: in vitro inhibition of collagen-induced platelet aggregation in platelet rich plasma; format: cell-based, guinea pig; conditions: for inhibition at 12.5 µg/mL: in vitro concentration 12.50 mcg/ml
# Method: (§5) The platelet antiaggregatory activity of the compounds of the invention was evaluated in vitro and in vivo, for example, according to the modified methods of Born [Born G. V. R., Nature 194, 927 (1962)] and Silver [Silver M. J., Science 183, 1085 (1974)].
# (§6) The compounds of this invention were found in vitro to have inhibitory activity on platelet aggregation induced by collagen or ADP (adenosine-5'-disphosphate) in platelet rich plasma of guinea pig [Dunkin Hantley Iva: PDH (SPF) Ivanovas GmBH, Germany].
# [6] = tested on: ADP-induced platelet aggregation; test: in vitro inhibition of ADP-induced platelet aggregation in platelet rich plasma; format: cell-based; conditions: guinea pig platelet rich plasma
# Method: as §5, §6
# TxA2 synthetase = test: serum TxB2 concentration in rats after single oral dose (activity on TxA2 synthetase in vivo); set-up: species or system rat; conditions: 2 hours
# Method: (§7) The activity on TxA2 and PGI2 synthetase has been evaluated in vivo. For example, rats were treated with a single oral dose of compound and killed 2 hours later. TxB2 and 6-keto-PGF1α concentrations, the stable metabolites of TxA2 and PGI2 respectively, were determined on serum and plasma respectively.
# PGI2 synthetase = test: plasma 6-keto-PGF1α concentration in rats after single oral dose (activity on PGI2 synthetase in vivo); set-up: species or system rat; conditions: 2 hours
# Method: as §7
# male SHR rats = test: development of hypertension in SHR rats, mean systemic pressure after seven weeks oral treatment; format: in vivo, rat (SHR)
# Method: For example, one of the compound of this invention, i.e. compound FCE 22178, was given orally to nine male SHR rats for seven weeks at the dosage of 9 mg/kg.
# The mean systemic pressure was monitored on an eight channels Beckman polygraph via a Statham pressure transducer, connected to a PE 60 catheter, inserted, 24 hours before monitored, into the left carotid artery.
# [7] = tested on: arachidonic acid (1.4 mg/kg) induced mortality in rabbits; test: arachidonic acid induced mortality in rabbits; format: in vivo, rabbit (New Zealand White)
# Method: as §5
# The compound FCE 22178 was also suspended in Methocel® and administered orally by gavage to rabbits (New Zealand White) at 2 mg/kg one hour before the injection of 1.4 mg/kg of arachidonic acid.
smiles,measurement,setting,value
"C1=C(Cn2ccnc2)CCc2ccccc21 [1,2-dihydro-3-(1-imidazolylmethyl)-naphthalene]",LD50 at 168 h,[1],< 200 mg/kg
"CC(C)(Oc1ccc2c(c1)C=C(n1ccnc1)CC2)C(=O)O [FCE 22473, 1,2-dihydro-3-(1-imidazolyl)-6-(2-carboxy-isopropoxy)-naphthalene]","Serum HDL cholesterol, % variation vs. controls",[2]; 27 mg/kg/os,+77 % variation vs. controls
same,"Total serum cholesterol, % variation vs. controls",[2]; 27 mg/kg/os,-73 % variation vs. controls
same,"Serum triglycerides, % variation vs. controls",[3]; 16.67 mg/kg/os,-57 % variation vs. controls
same,"Total serum cholesterol, % variation vs. controls",[3]; 16.67 mg/kg/os,-32 % variation vs. controls
c1c[nH]cn1 [imidazole],inhibition of TxA2 synthetase,[4],able to inhibit; also recorded: only a very weak TXA2 inhibiting effect
"COc1ccc2c(c1)C=C(n1ccnc1)CC2 [FCE 22466, 1,2-dihydro-3-(1-imidazolyl)-6-methoxy-naphthalene]",inhibition of collagen-induced platelet aggregation,[5]; 25 mcg/ml,totally inhibits collagen-induced platelet aggregation in three out of four samples
same,inhibition at 12.33 µg/mL,"[5]; Cavia porcellus, Platelet, in vitro concentration 12.33 mcg/ml",50%
same,activity on collagen-induced platelet aggregation,"[5]; in vitro, guinea pig platelet rich plasma",active
same,activity on ADP-induced platelet aggregation,[6],active
"COc1ccc2c(c1)C(=O)C(n1ccnc1)CC2 (stereo not shown) [FCE 21848, 2-(1-imidazolyl)-3,4-dihydro-7-methoxy-1(2H)-naphthalenone, reference compound]",inhibition at 12.5 µg/mL,"[5]; Cavia porcellus, Platelet",0%
same,"Serum triglycerides, % variation vs. controls",[3]; 50.00 mg/kg/os,inactive
same,"Total serum cholesterol, % variation vs. controls",[3]; 50.00 mg/kg/os,inactive
"O=C(O)c1ccc2c(c1)C=C(n1ccnc1)CC2 [FCE 22178, 1,2-dihydro-3-(1-imidazolyl)-6-carboxy-naphthalene]",reduction of serum TxB2 concentration,TxA2 synthetase; 100 mg/kg,90%
same,reduction of serum TxB2 concentration,TxA2 synthetase; dosed up to 9 mg/kg,up to 70%
same,change of plasma 6-keto-PGF1α concentration,PGI2 synthetase; 100 mg/kg,doubled
same,increase of plasma 6-keto-PGF1α concentration,PGI2 synthetase; dosed up to 9 mg/kg,up to 30%
same,development of hypertension,male SHR rats; 9 mg/kg orally for seven weeks,decreased the development of hypertension
same,"Mean systemic pressure, Treated","male SHR rats; 9 mg/kg orally, 7 weeks, controls 177 ± 5.06",154.8 ± 14.1 mm Hg ± E.S.
same,effect on arachidonic acid induced mortality,[7]; 2 mg/kg orally,greatly decreases
same,Mortality,"[7]; 2 mg/kg/os, one hour before arachidonic acid 1.4 mg/kg, Methocel control 9/9",3/9
"COc1ccc2c(c1)CCC(Cn1ccnc1)=C2 [1,2-dihydro-3-(1-imidazolylmethyl)-7-methoxy-naphthalene]",LD50 at 168 h,[1],< 200 mg/kg
"O=C1c2cc(Cl)ccc2OCC1n1ccnc1 (stereo not shown) [FCE 20204, 3-(1-imidazolyl)-2,3-dihydro-6-chloro-4H-1-benzopyran-4-one, reference compound]",inhibition at 12.5 µg/mL,"[5]; Cavia porcellus, Platelet",0%
same,"Serum HDL cholesterol, % variation vs. controls",[2]; 25 mg/kg/os,+49 % variation vs. controls
same,"Total serum cholesterol, % variation vs. controls",[2]; 25 mg/kg/os,+7 % variation vs. controls
